Test results published in publication PMC10447463, “Data-mining unveils structure–property–activity correlation of viral infectivity enhancing self-assembling peptides” (Nature Communications, 2023).
Read-outs that look alike come from different tables or passages of the source.

Columns and labels:
[1] = type: physicochemical; set-up: key to Fibril / Fibril Formation / TEM 2cat / Fibril: 1 = fibrils present; 0 non-fibrillar structures; conditions: for Fibril / Fibril / Fibril Formation: TEM; for Fibril / Fibril Formation: 1 mg/mL, uranyl acetate stain, qualitative
[2] = type: physicochemical; conditions: for ThT Cat. / ThT-Fluorescence (categorical): ThT-active if fluorescence at least twice the control
How it was run: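 Preformed peptide fibrils (1 mg/mL) mixed with 50 µM ThT in PBS, 15 min at RT, fluorescence ex 440/em 488 nm versus PBS blank, triplicates. Zeta potential: peptides at 1 mg/mL in PBS pH 7.4, aged 1 d at RT, diluted in 1 mM KCl, Smoluchowski from electrophoretic mobility.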

[3] = Fig S10 panel D, fibril category by TEM
[4] = FigS12 panel A, fibril category by TEM
[5] = 1 = fibrils present, 0 = non-fibrillar
[6] = 1 = fibrils present, 0 = non-fibrillar structures
[7] = ThT fluorescence category, 1 if Rel. ThT >2
[8] = category: fibrils present or non-fibrillar

HHHHKAKAKAKAWWWW
1 (ThT. Cat is 1, if Rel. ThT >2): Tht category (> 2 to blank = +) ([2]; Fig S10 panel D) | Tht category (> 2 to blank = +) ([2]; FigS12 panel A) | ThT Cat, ([2]; FigS12 panel B) | ThT Cat, ([2]; ThT category, 1 if Rel. ThT >2) | ThT Cat. ([2]; ThT category, 1 if Rel. ThT >2) | ThT Cat. / ThT-Fluorescence (categorical) [2]
0: TEM 2cat [1, 3] | TEM 2cat [1, 4] | Fibril ([1]; FigS12 panel B) | Fibril / Fibril Formation [1] | Fibril [1, 5] | Fibril [1, 6]

HHHHKAKAKAKAYYYY
0 (ThT-inactive (N-Fold <2)): Tht category (> 2 to blank = +) ([2]; Fig S10 panel D) | Tht category (> 2 to blank = +) ([2]; FigS12 panel A) | ThT Cat, ([2]; FigS12 panel B) | ThT Cat, ([2]; ThT category, 1 if Rel. ThT >2) | ThT Cat. [2, 7] | ThT Cat. / ThT-Fluorescence (categorical) [2]
0: TEM 2cat [1, 3] | TEM 2cat [1, 4] | Fibril ([1]; FigS12 panel B) | Fibril / Fibril Formation [1] | Fibril [1, 5] | Fibril [1, 6]

KFKFQFF
1 (ThT. Cat is 1, if Rel. ThT >2): Tht category (> 2 to blank = +) ([2]; Fig S10 panel D) | ThT Cat, ([2]; ThT category, 1 if Rel. ThT >2) | ThT Cat. [2, 7] | ThT Cat. / ThT-Fluorescence (categorical) [2]
1: TEM 2cat [1, 3] | Fibril / Fibril Formation [1] | Fibril [1, 5] | Fibril [1, 6] | TEM 2cat [1, 8]

KVKVQVVV
0 (ThT-inactive (N-Fold <2)): Tht category (> 2 to blank = +) ([2]; Fig S10 panel D) | Tht category (> 2 to blank = +) ([2]; FigS12 panel A) | ThT Cat, ([2]; FigS12 panel B) | ThT Cat, ([2]; ThT category, 1 if Rel. ThT >2) | ThT Cat. [2, 7] | ThT Cat. / ThT-Fluorescence (categorical) [2]
1: TEM 2cat [1, 3] | TEM 2cat [1, 4] | Fibril ([1]; FigS12 panel B) | Fibril / Fibril Formation [1] | Fibril [1, 5] | Fibril [1, 6]

KIKIQIMWNQ
1: TEM 2cat [1, 3] | Fibril / Fibril Formation [1] | Fibril [1, 5] | Fibril [1, 6] | TEM 2cat [1, 8]
0 (ThT-inactive (N-Fold <2)): Tht category (> 2 to blank = +) ([2]; Fig S10 panel D) | ThT Cat, ([2]; ThT category, 1 if Rel. ThT >2) | ThT Cat. ([2]; ThT category, 1 if Rel. ThT >2) | ThT Cat. / ThT-Fluorescence (categorical) [2]

IKVAVKIKIQINM
0 (ThT-inactive (N-Fold <2)): Tht category (> 2 to blank = +) ([2]; Fig S10 panel D) | ThT Cat, ([2]; ThT category, 1 if Rel. ThT >2) | ThT Cat. ([2]; ThT category, 1 if Rel. ThT >2) | ThT Cat. / ThT-Fluorescence (categorical) [2]
1: TEM 2cat [1, 3] | Fibril / Fibril Formation [1] | Fibril [1, 5] | Fibril [1, 6] | TEM 2cat [1, 8]

KIEIQINM
1: TEM 2cat [1, 3] | TEM 2cat [1, 4] | Fibril ([1]; FigS12 panel B) | Fibril / Fibril Formation [1] | Fibril [1, 5] | Fibril [1, 6]
0 (ThT-inactive (N-Fold <2)): Tht category (> 2 to blank = +) ([2]; Fig S10 panel D) | Tht category (> 2 to blank = +) ([2]; FigS12 panel A) | ThT Cat, ([2]; FigS12 panel B) | ThT Cat, ([2]; ThT category, 1 if Rel. ThT >2) | ThT Cat. [2, 7] | ThT Cat. / ThT-Fluorescence (categorical) [2]

KFKFQFN
1.1: Rel. ThT ([2]; n-fold ThT fluorescence vs control (PBS, 10% DMSO), 4 µL 1 mg/mL fibrils + 20 µL 50 µM ThT, 15 min RT, ex 440 / em 488 nm, triplicate)
0 (ThT-inactive (N-Fold <2)): Tht category (> 2 to blank = +) ([2]; Fig S10 panel D) | Tht category (> 2 to blank = +) ([2]; FigS12 panel A) | ThT Cat, ([2]; FigS12 panel B) | ThT Cat, ([2]; ThT category, 1 if Rel. ThT >2) | ThT Cat. ([2]; ThT category, 1 if Rel. ThT >2) | ThT Cat. / ThT-Fluorescence (categorical) [2]
1: TEM 2cat ([1]; Fig S10 panel D) | TEM 2cat [1, 4] | Fibril ([1]; FigS12 panel B) | Fibril / Fibril Formation [1] | Fibril [1, 5] | Fibril [1, 6]
